The values below come from paper PMC4793717 (Pharmacology, 2013).

Entries after “also recorded” stand apart in the source; their conditions may differ. Read-outs that look alike come from different tables or passages of the source.

Series [1] concerns mice. The conditions noted are these: cited from earlier work.
Series [2] concerns Caco-2. The experiment in a line: In vitro Caco-2 permeability assay. As to conditions: test conc. 10 μmol/l, 2 h. It is filed as in vitro ADME.
Series [3] addresses T1, TrkB receptor (Rattus norvegicus, UniProt Q63604). Put plainly: TrkB activation in primary cortical neurons. It is filed as cell-based. As to conditions: for TrkB activation in primary neurons (p-TrkB Y816): 500 nmol/l, 15 min, primary cortical neurons.
In series [4] the test system is Akt. The experiment in a line: p-Akt ELISA of mouse brain samples. The conditions noted are these: for p-Akt versus control in entacapone-treated and tolcapone-treated groups (ELISA): COMT inhibitor 30 mg/kg pretreatment, flavonoid 5 mg/kg. It is filed as in vivo, C57BL/6J mice. A general note: An ELISA detects its analyte on a solid surface through an enzyme-linked reagent.

Series [5] addresses T2, TrkB (Mus musculus, UniProt P15209). The conditions noted are these: oral administration, at 2 or 4 h; cited from earlier work.
For series [6], the target named is T2, TrkB. The experiment in a line: TrkB activation in mouse brain after oral gavage. The class given is in vivo, C57BL/6J mice. As to conditions: 5 mg/kg oral gavage, brain collected at 2 h.
The test system of series [7] is TrkB receptor. As to conditions: cited from earlier work.
The test system of series [8] is dentate gyrus. As to conditions: chronic treatment; cited from earlier work.
A short description of series [9]: In vitro Caco-2 permeability assay. The class given is in vitro ADME. As to conditions: human, Caco-2. On the technique in general: Passage across Caco-2 layers is used to estimate intestinal permeability.
The target of series [10] is T1, TrkB receptor. As to conditions: cited from earlier work.
For series [11] the following is noted: chronic treatment, dose of 5 mg/kg; cited from earlier work.
Series [12] in a line: In vivo pharmacokinetic study of 7,8-DHF, plasma and brain by HPLC-MS/MS. Details: species or system CD-1 mice. As to conditions: for half-life: T1/2, plasma.
For series [13], the system named is mice. The experiment in a line: Tail suspension test. It is filed as in vivo, C57BL/6J mice. The conditions noted are these: 5 mg/kg orally once a day for 21 days.
The target of series [14] is T2, TrkB. Put plainly: Immunohistochemistry staining of p-TrkB in the dentate gyrus. It is filed as in vivo, mice. The conditions noted are these: 5 mg/kg orally for 21 days.
Series [15] concerns mice. Put plainly: Forced swim test. The conditions noted are these: 5 mg/kg orally once a day for 21 days. It is filed as in vivo, C57BL/6J mice.
Series [16] has as its system dentate gyrus. Put plainly: Neurogenesis assay via BrdU incorporation in the dentate gyrus. The class given is in vivo, C57BL/6J mice. The conditions noted are these: 5 mg/kg orally for 21 days. (Dividing cells build labelled thymidine or BrdU into new DNA.)
[17] abbreviates: male, CD-1, mouse, plasma, po, 50 mg/kg.
The mark [18] stands for this setting: male, CD-1, mouse, plasma, po, 50 mg/kg, mice, after 7,8-DHF p.o. 50 mg/kg.
Where [19] appears, read: mice, after 7,8-DHF p.o. 50 mg/kg.

T1 sequence (Q63604 32-821): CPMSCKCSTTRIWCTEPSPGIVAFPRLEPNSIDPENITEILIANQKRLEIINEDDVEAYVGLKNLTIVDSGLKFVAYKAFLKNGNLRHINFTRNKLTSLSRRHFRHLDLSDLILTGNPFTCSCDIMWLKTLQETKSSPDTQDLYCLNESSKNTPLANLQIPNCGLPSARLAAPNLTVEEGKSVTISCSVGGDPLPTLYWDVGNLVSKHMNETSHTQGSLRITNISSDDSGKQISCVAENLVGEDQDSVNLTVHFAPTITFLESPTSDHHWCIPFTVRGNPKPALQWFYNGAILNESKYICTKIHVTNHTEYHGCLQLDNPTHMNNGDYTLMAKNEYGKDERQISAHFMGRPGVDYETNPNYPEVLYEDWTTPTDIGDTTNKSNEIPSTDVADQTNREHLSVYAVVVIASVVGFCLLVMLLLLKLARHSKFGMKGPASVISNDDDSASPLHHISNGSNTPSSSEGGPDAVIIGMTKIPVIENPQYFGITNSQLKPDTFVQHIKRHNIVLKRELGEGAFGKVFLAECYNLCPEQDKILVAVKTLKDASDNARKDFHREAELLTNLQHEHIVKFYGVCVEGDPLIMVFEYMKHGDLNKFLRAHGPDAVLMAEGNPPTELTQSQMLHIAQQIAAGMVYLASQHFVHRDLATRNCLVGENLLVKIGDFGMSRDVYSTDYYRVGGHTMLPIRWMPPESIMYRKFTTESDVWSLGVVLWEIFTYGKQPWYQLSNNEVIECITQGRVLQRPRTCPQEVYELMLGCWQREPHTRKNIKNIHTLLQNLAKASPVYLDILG
T2 sequence (P15209 32-821): as the sequence (Q63604 32-821) above, with M3T, T9S, T10A, I32V, K63R, G84S, T153M, I185L, T394S, N770S counted along it

Take `CN(C)c1ccc(-c2cc(=O)c3ccc(O)c(O)c3o2)cc1` [4′-DMA-7,8-DHF, 4′-dimethylamino-7,8-DHF]: in series [1] (chronic treatment), the “immobility in FST” value was “robustly decreased the immobility in FST after chronic treatment”. Moreover, in series [2], the “Comment (Caco-2 permeability)” value is on record as “poor recovery A to B”, the “Mean A→B Papp” value was 0.9 10^−6 cm•s^−1 and the “Mean B→A Papp” value is recorded as 3.1 10^−6 cm•s^−1. Further, in [2] (>2 indicates significant efflux activity), the Efflux ratio was 3.6. For the same molecule, in series [3], the “TrkB activation in primary neurons (p-TrkB Y816)” value was “more robust TrkB agonistic activity than 7,8-DHF; also recorded: activated TrkB receptor signaling pathways in primary neurons”. Besides, the “Akt activation in mouse brain (p-Akt ELISA)” value in [4] (1 mg/kg oral, 2 h) is given as “potently activated Akt”. In series [4], the “p-Akt versus control in entacapone-treated and tolcapone-treated groups (ELISA)” value was “no significant changes”. In series [5], the “TrkB activation in mouse brain” value is “evidently activates the TrkB receptor in mouse brain”. Also, in series [6], the “TrkB activation in mouse brain (p-TrkB Y816)” value is on record as “obviously activated TrkB compared to vehicle control”.

As to `O=c1cc(-c2ccccc2)oc2ccc(O)c(O)c12` [5,6-dihydroxyflavone], the TrkB agonistic effect entry in series [7] is reported as “but not 5,6-dihydroxyflavone or 5,7-dihydroxyflavone possess a TrkB agonistic effect”.

On to `O=c1cc(-c2ccccc2)oc2cc(O)cc(O)c12` [5,7-dihydroxyflavone], for which the TrkB agonistic effect result in series [7] is on record as “but not 5,6-dihydroxyflavone or 5,7-dihydroxyflavone possess a TrkB agonistic effect”.

Turning to `O=c1cc(-c2cccc(O)c2)oc2cc(O)c(O)cc12` [6,7,3′-trihydroxyflavone], the TrkB agonistic effect result in series [7] is “possess a TrkB agonistic effect”.

In the case of `O=c1cc(-c2ccccc2)oc2cc(O)c(O)cc12` [6,7-dihydroxyflavone], in [7], the TrkB agonistic effect entry was “possess a TrkB agonistic effect”.

As for `O=c1cc(-c2ccccc2)oc2c(O)c(O)ccc12` [7,8-DHF, 7,8-Dihydroxyflavone], in series [8], the “neurogenesis in the dentate gyrus” value was “enhances neurogenesis in the dentate gyrus”. Moreover, in series [1] (acute injection), the latency of immobility entry is given as “has no effect on the latency of immobility”. The “immobility in FST” value in [1] (chronic treatment) is on record as “robustly decreased the immobility in FST after chronic treatment”. The “immobility in FST” value in series [1] (subchronic intraperitoneal injection) is “significantly decreases immobility in FST”. Further, in series [9], the Papp A→B at 2 h, 10 μmol/l is 1.5 ×10⁻⁶ cm/s; the Papp B→A at 2 h, 10 μmol/l was found to be 1.7 ×10⁻⁶ cm/s; the efflux ratio at 2 h, 10 μmol/l amounted to 1.2. Also, the “Comment (Caco-2 permeability)” value in series [2] is “poor recovery A to B”. For the same molecule, the “concentration at which TrkB phosphorylation was prominent” value in [10] is 100 nmol/L. In series [11], the toxicity entry is “reveals no demonstrable toxicity”. Besides, in [4], the “p-Akt versus control in entacapone-treated and tolcapone-treated groups (ELISA)” value is listed as “no significant changes”. For the same molecule, the “TrkB activation in mouse brain” value in series [5] is “evidently activates the TrkB receptor in mouse brain”. In addition, in series [6], the “TrkB activation in mouse brain (p-TrkB Y816)” value is recorded as “clearly activated the TrkB receptor compared to vehicle control; also recorded: obviously activated TrkB compared to vehicle control”. In addition, the “brain concentration of parent compound relative to methylated metabolite” value in series [12] (brain, mice, after 7,8-DHF p.o. 50 mg/kg) is “approximately 30 fold”. In [12] (male, CD-1, mouse, brain, po, 50 mg/kg), the Cmax was found to be 70 ng/mL. In addition, in [12] (setting [17]), the AUC(0-inf) was 125 ng·h/mL, the AUC(0-t) is 108 ng·h/mL, the Cmax came to 70 ng/mL and the Tmax was 0.167 h. The half-life in series [12] (setting [18]) is about 2.23 h. In series [12] (setting [19]), the “brain concentration at 6 h” value is “below the quantitative limit”. Further, the “penetration of the brain-blood barrier” value in series [12] (mice, oral dosing of 50 mg/kg 7,8-DHF) is on record as “can penetrate the brain-blood barrier”.

In series [12] (setting [18]), `COc1c(O)ccc2c(=O)cc(-c3ccccc3)oc12` [8-methoxy-metabolite, 7-hydroxy-8-methoxyflavone] returned a half-life of 2.47 h. Also, the “earliest observation in brain” value in series [12] (setting [19]) came to 3 min.

`COc1ccc2c(=O)cc(-c3ccccc3)oc2c1OC` [D024]: in series [6], the “TrkB activation in mouse brain (p-TrkB Y816)” value is “elicited TrkB activation (p-TrkB Y816), but the effect was not as strong as that of the other two compounds” and the “p-TrkB 706 immunoblotting in mouse brain” value is “elicited the strongest p-TrkB signal”.

`COc1ccc2c(=O)cc(-c3ccccc3)oc2c1O` [H428, 7-methoxy-8-hydroxyflavone]: the “immobility in TST” value in [13] is listed as “substantially decreased the immobility”. Further, the “TrkB phosphorylation in the dentate gyrus (immunohistochemistry)” value in [14] is recorded as “strongly provoked TrkB phosphorylation in the dentate gyrus”. Besides, the “TrkB activation in primary neurons (p-TrkB Y816)” value in series [3] is “activates the TrkB receptor in primary neurons”. Besides, the “immobility in FST” value in [15] is listed as “strongest effect”. For the same molecule, the “TrkB activation in mouse brain (p-TrkB Y816)” value in series [6] is “clearly activated the TrkB receptor compared to vehicle control”. In addition, in series [16], the “neurogenesis (BrdU-positive cells in the dentate gyrus)” value was “significantly promoted neurogenesis compared to vehicle”. In addition, the half-life in series [12] (setting [18]) amounted to 1.53 h. In series [12] (setting [19]), the “earliest detection in plasma” value is 3 min and the “plasma concentration at 6 h” value was “below the quantitative limit”. Also, in series [12] (mice, after 7,8-DHF p.o. 50 mg/kg, 50 mg/kg), the “detection in mouse brain at any time” value is “below the limit of quantification”.

`CNC(=C[N+](=O)[O-])NCCSCc1ccc(CN(C)C)o1` [Ranitidine, reference compound]: in series [9], the Papp A→B at 2 h, 10 μmol/l was determined as 0.3 ×10⁻⁶ cm/s; the Papp B→A at 2 h, 10 μmol/l was 2.9 ×10⁻⁶ cm/s; the efflux ratio at 2 h, 10 μmol/l was 10.9. Besides, the “Comment (Caco-2 permeability)” value in series [2] is “low permeability, efflux”.

For the molecule `CC(=O)CC(c1ccccc1)c1c(O)c2ccccc2oc1=O` (centres unmarked) [Warfarin, reference compound], in [9], the apical-to-basolateral permeability (Papp A→B) at 2 h, 10 μmol/l came to 52.6 ×10⁻⁶ cm/s; the Papp B→A at 2 h, 10 μmol/l came to 18.3 ×10⁻⁶ cm/s; the efflux ratio at 2 h, 10 μmol/l was found to be 0.3. Besides, the “Comment (Caco-2 permeability)” value in [2] is listed as “high permeability control”.

B1: BDNF: Brain-derived neurotrophic factor, member of the neurotrophin family; positive control from Roche (protein, UniProt P23560 19-247, looked up)
Neurotrophic factor BDNF …: APMKEANIRGQGGLAYPGVRTHGTLESVNGPKAGSRGLTSLADTFEHVIEELLDEDQKVRPNEENNKDADLYTSRVMLSSQVPLEPPLLFLLEEYKNYLDAANMSMRVRRHSDPARRGELSVCDSISEWVTAADKKTAVDMSGGTVTVLEKVPVSKGQLKQYFYETKCNPMGYTKEGCRGIDKRHWNSQCRTTQSYVRALTMDSKKRIGWRFIRIDTSCVCTLTIKRGR
As to B1, the “concentration eliciting TrkB activation” value in series [3] (titration assay in primary neurons) lay in the range of 1 to 30 nmol/L.

Broadly, the Papp A→B is how fast a substance crosses the layer from the apical side. Lower therefore signals poor permeation. The term Papp B→A denotes the apparent permeability from the basolateral to the apical side of a cell layer. In general, efflux ratio refers to a quotient of directional permeabilities that is used to spot active efflux. As usually defined, the Cmax is the highest concentration seen after dosing. As a reminder, the AUC(0-inf) is the area under the concentration-time curve extrapolated to infinity. The low end stands for low exposure, the high end for high exposure. As a reminder, the AUC(0-t) is exposure summed from dosing to a finite time, without extrapolation to infinity. A higher AUC(0-t) goes with high exposure. By Tmax is commonly meant the time from dosing to the highest level. For orientation: half-life means the time in which the quantity being followed falls by half. Lower therefore signals fast loss.
